Assay results from US20160115540A1, “PRODRUGS AND DRUGS” (Biogen MA Inc., priority 2013, published 2016).
Structures can show the parent of a compound that is named as a salt.

Test system: kidney
Test: Transcriptional profiling on Affymetrix GeneChips, single dose, naïve mice: kidney
Format: in vivo, C57BL/6 mice
Details: 100 DMF-vs-Veh, 2 h
Experimental: Treated mice were sacrificed at 2, 7, or 12 hours. Tissues (liver, spleen, kidney, jejunum, cortex, hippocampus, striatum and whole blood) were collected and analyzed by transcriptional profiling on mouse Affymetrix GeneChips.
Tissues (liver, spleen, kidney, jejunum, cortex, hippocampus, striatum and whole blood) were collected and analyzed by transcriptional profiling on mouse Affymetrix GeneChips.
Animals were exposed to CO2 and whole blood collected via cardiac puncture. Two 100 μl aliquots of whole blood were collected in 1.5 mL microcentrifuge tubes and snap frozen in liquid nitrogen. Peripheral (liver, spleen, kidney and jejunum) and CNS brain (cerebellum, hippocampus, striatum and cortex) tissues were harvested and snap frozen in liquid nitrogen, with special care taken to collect tissues of similar size and from the same location. All samples were stored at −80° C. until RNA extraction was conducted.
For RNA preparation, frozen tissues were placed in 2 mL RNAse-free 96-well blocks with 1.5 mL QIAzol Lysis Reagent (QIAgen) and a 3.2 mm stainless steel bead (BioSpec Products, Bartlesville, Okla.). Tissues were disrupted for four cycles of 45 seconds in a Mini-Beadbeater (Biospec Products). RNA was extracted in chloroform and the aqueous phase was mixed with an equal volume of 70% ethanol. Extracted RNA was applied to RNeasy 96 plates and purified by the spin method according to the manufacturer's protocol (RNeasy 96 Universal Tissue Protocol, QIAgen, Hilden Germany).
Automated sample amplifications and biotin labelings were carried out using the NuGEN Ovation RNA Amplification system V2 (Cat #3100), Ovation WB reagent (Cat #1300) and Encore Biotin module (Cat #4200) (NuGEN Technologies, Inc, San Carlos, Calif.) according to manufacturer's recommendations using an Arrayplex automated liquid handler (Beckman Coulter, Indianapolis, Ind.). Two micrograms of biotin labeled sscDNA probe were hybridized to Affymetrix GeneChip Affymetrix HT_MG-430_PM plate arrays with modified conditions as described in Allaire et al. Washing and staining of the hybridized arrays were completed as described in the GeneChip Expression analysis technical manual for HT plate arrays using the Genechip® Array Station (Affymetrix, Santa Clara, Calif.) with modifications as described in Allaire et al. The processed GeneChip® plate arrays were scanned using GeneTitan scanner (Affymetrix, Santa Clara, Calif.).
Affymetrix scans were subject to quality control (QC) measures. These tests included a visual inspection of the distribution of raw signal intensities and an assessment of RNA degradation, relative log expression (RLE), and normalized unsealed standard error (NUSE). All sample scans that passed these QC metrics were included in the analysis.
All CEL files were subjected to GC-content-based Robust Multi-array Average (GCRMA) normalization (version 2.20.0) (Irizarry R A, et al. Nucleic Acids Res 2003; 31:e15; Li C, et al. Genome Biol 2001; 2:[…]0032). Expression levels were log (base 2) transformed.
All calculations and analyses were carried out using R (version 2.11.1) and Bioconductor computational tools (Gentleman R. Springer Science+Business Media 2005).

In the case of COC(=O)/C=C/C(=O)OC [DMF, dimethyl fumarate], the “FC Kbtbd11 1431254_PM_at” value is reported as −1.77, the “FC Kbtbd11 1435465_PM_at” value is reported as −1.50 and the “FC Kdm6b 1440346_PM_at” value is reported as 1.52. The “FC LOC100502834 1441010_PM_at” value was −1.53, the “FC LOC100503447 1443908_PM_at” value was −1.72 and the “FC Lipg 1421262_PM_at” value was 2.42. For the same compound, the “FC Lipg 1450188_PM_s_at” value was 1.94, the “FC Lonrf3 1429863_PM_at” value was 4.13 and the “FC Lonrf3 1436200_PM_at” value was 3.86. For the same compound, the “FC Maff 1418936_PM_at” value was 2.83, the “FC Mdm2 1423605_PM_a_at” value was 1.51 and the “FC Mdm2 1427718_PM_a_at” value was 1.66. The “FC Med13 1438725_PM_at” value was 2.02, the “FC Mfsd2a 1428223_PM_at” value was −2.59 and the “FC Mir17hg 1428694_PM_at” value was 2.82. The “FC Mpp6 1441546_PM_at” value was 1.62, the “FC Mt1 1451612_PM_at” value was 2.79 and the “FC Mtch2 1438842_PM_at” value was 1.67. For the same compound, the “FC Mthfd2 1419253_PM_at” value was 2.06, the “FC Mthfd2 1419254_PM_at” value was 1.54 and the “FC Mylip 1424988_PM_at” value was −1.70. For the same compound, the “FC Naa16 1429056_PM_at” value was 1.71, the “FC Napsa 1430744_PM_at” value was −4.53 and the “FC Nat2 1449981_PM_a_at” value was −2.01. The “FC Nlrp6 1427369_PM_at” value was −1.52, the “FC Ntn4 1450512_PM_at” value was −1.67 and the “FC Nufip2 1435632_PM_at” value was 1.57. The “FC Osgin1 (1424022_PM_at)” value was 4.63, the “FC Ovol1 1419051_PM_at” value was −1.60 and the “FC P4ha1 1452094_PM_at” value was 1.56. For the same compound, the “FC Paip1 1441955_PM_s_at” value was 1.61, the “FC Pank1 1429813_PM_at” value was −1.59 and the “FC Pgd 1423706_PM_a_at” value was 1.61. For the same compound, the “FC Pgd 1438627_PM_x_at” value was 1.50, the “FC Pgd (1436771_PM_x_at)” value was 1.52 and the “FC Pgd (1437380_PM_x_at)” value was 1.53. For the same compound, the “FC Phf23 1428997_PM_at” value was 1.72, the “FC Phip 1438535_PM_at” value was 1.50 and the “FC Plekhf2 1423862_PM_at” value was 1.54. The “FC Plk3 1434496_PM_at” value was 3.14, the “FC Polr3e 1429456_PM_a_at” value was −1.69 and the “FC Ppm1k 1441988_PM_at” value was −1.62. For the same compound, the “FC Ppp1r15b 1436366_PM_at” value was 1.72, the “FC Pppde1 1425185_PM_at” value was 1.94 and the “FC Pppde1 1451621_PM_at” value was 1.65. For the same compound, the “FC Pprc1 1426381_PM_at” value was 1.74, the “FC Prkar2b 1438664_PM_at” value was 2.43 and the “FC Prr5 1451463_PM_at” value was 1.65. The “FC Psme4 1443116_PM_at” value was 1.56, the “FC Rg9mtd2 1435035_PM_at” value was 1.82 and the “FC Rhebl1 1447818_PM_x_at” value was −1.57. The “FC Rhebl1 1451516_PM_at” value was −2.01, the “FC Riok2 1423481_PM_at” value was 1.62 and the “FC Rwdd2a 1428963_PM_at” value was 2.54. The “FC Siah2 1448170_PM_at” value was 1.71, the “FC Slc1a4 1423549_PM_at” value was 1.52 and the “FC Slc7a13 1431740_PM_at” value was −2.60. The “FC Slc20a1 1448568_PM_a_at” value was 2.07, the “FC Slc36a2 1436521_PM_at” value was 4.63 and the “FC Slc38a2 1426722_PM_at” value was 2.05. For the same compound, the “FC Slc40a1 1448566_PM_at” value was 1.71, the “FC Snhg1 1433674_PM_a_at” value was 1.62 and the “FC Snhg1 1433675_PM_at” value was 1.69. For the same compound, the “FC Snx16 1438803_PM_s_at” value was 1.60, the “FC Spry4 1440867_PM_at” value was 1.71 and the “FC Spry4 1445669_PM_at” value was 1.54. For the same compound, the “FC Sqstm1 1450957_PM_a_at” value was 1.69, the “FC Srsf7 1436871_PM_at” value was 1.57 and the “FC Srxn1 (1419942_PM_at)” value was 1.62. The “FC Srxn1 (1426875_PM_s_at)” value was 1.59, the “FC Susd3 1428975_PM_at” value was −1.51 and the “FC Syn3 1435311_PM_s_at” value was −1.73. The “FC Taf15 1438130_PM_at” value was 1.59, the “FC Them4 1431140_PM_at” value was 1.80 and the “FC Tmco6 1451692_PM_at” value was −1.57. For the same compound, the “FC Tmem26 1435409_PM_at” value was −1.85 and the “FC Tmem26 (1434583_PM_at)” value was −1.66.
